Measured values published in patent publication US20230242530A1, “8-(AZETIDIN-1-YL)-[1,2,4]TRIAZOLO[1,5-A]PYRIDINYL COMPOUNDS, COMPOSITIONS AND METHODS OF USE THEREOF” (Genentech, Inc., priority 2016, published 2023).

Key:
[1] = target: T1, isolated recombinant JAK1 kinase domain (Homo sapiens, UniProt P23458); experiment: JAK enzyme assay, JAK1 kinase domain (Caliper LabChip); format: biochemical; conditions: 1.5 nM JAK1, ATP 25 μM, Morrison tight binding model
T1 construct: isolated recombinant JAK1 and JAK2 kinase domain
T1 sequence (P23458 875-1153 limits assumed): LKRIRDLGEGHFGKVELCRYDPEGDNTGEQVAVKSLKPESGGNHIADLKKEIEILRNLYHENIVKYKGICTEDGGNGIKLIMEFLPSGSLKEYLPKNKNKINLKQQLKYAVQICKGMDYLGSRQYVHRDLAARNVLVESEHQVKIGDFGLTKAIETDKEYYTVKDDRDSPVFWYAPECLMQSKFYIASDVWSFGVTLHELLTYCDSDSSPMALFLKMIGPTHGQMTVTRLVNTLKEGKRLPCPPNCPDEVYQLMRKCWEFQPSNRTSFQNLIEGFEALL
Procedure, shortened: (§1)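 Ki values were obtained by Morrison tight-binding analysis with ATP-competitive correction, Ki=Ki,app/(1+[ATP]/Km,app). Phosphorylated versus total fluorescent JAK3-derived peptide was quantified on a Caliper LabChip. Kinase reactions with the isolated recombinant domains ran 30 min at 22 °C before EDTA quench (50 mM final).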

[2] = target: T2, isolated recombinant JAK2 kinase domain (Homo sapiens, UniProt O60674); experiment: JAK enzyme assay, JAK2 kinase domain (Caliper LabChip); format: biochemical; conditions: 0.2 nM JAK2, ATP 25 μM, Morrison tight binding model
T2 construct: isolated recombinant JAK1 and JAK2 kinase domain
T2 sequence (O60674 849-1124 limits assumed): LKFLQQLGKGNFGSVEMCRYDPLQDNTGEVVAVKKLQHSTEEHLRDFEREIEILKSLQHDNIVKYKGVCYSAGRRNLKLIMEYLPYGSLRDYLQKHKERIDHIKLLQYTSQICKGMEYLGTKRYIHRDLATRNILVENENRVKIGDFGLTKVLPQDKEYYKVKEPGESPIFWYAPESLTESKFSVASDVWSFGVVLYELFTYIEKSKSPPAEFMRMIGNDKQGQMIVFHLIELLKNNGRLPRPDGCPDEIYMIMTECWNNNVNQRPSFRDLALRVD
Procedure, shortened: as §1

[3] = tested on: JAK1-dependent STAT6 phosphorylation downstream of IL-13 stimulation in BEAS-2B cells; experiment: JAK1 pathway assay in cell lines: IL-13 p-STAT6 BEAS-2B; format: cell-based; conditions: BEAS-2B human bronchial epithelial cells, 1 hr compound, IL-13 15 min, MSD readout
Procedure, shortened: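 Phospho-STAT6 read by MSD electrochemiluminescence in lysates of BEAS-2B cells kept in complete growth medium. Cells were pretreated 1 hr at 37 °C with compound (0.2% DMSO final) and stimulated 15 min with IL-13 at its EC90; EC50 is the concentration halving signal versus DMSO.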

Structure (SMILES) | Ki [1] [nM] | Ki [2] [nM] | EC50 [3] [nM]
CN1CCN(C(=O)Cn2cc(Nc3nc4c(N5CC(CC#N)(n6cc(CCO)cn6)C5)cccn4n3)cn2)CC1 [Example 25, 2-[3-[4-(2-hydroxyethyl)pyrazol-1-yl]-1-[2-[[1-[2-(4-methylpiperazin-1-yl)-2-oxo-ethyl]pyrazol-4-yl]amino]-[1,2,4]triazolo[1,5-a]pyridin-8-yl]azetidin-3-yl]acetonitrile] | 0.4 | 2.3 | 137
CN1CCN(C(=O)Cn2cc(Nc3nc4c(N5CC(CC#N)(n6cc(-c7ccccc7)cn6)C5)cccn4n3)cn2)CC1 [Example 21, formic acid;2-[1-[2-[[1-[2-(4-methylpiperazin-1-yl)-2-oxo-ethyl]pyrazol-4-yl]amino]-[1,2,4]triazolo[1,5-a]pyridin-8-yl]-3-(4-phenylpyrazol-1-yl)azetidin-3-yl]acetonitrile] | 1.1 | 7.7 | 43
CCc1cnn(C2(CC#N)CN(c3cccn4nc(Nc5cnn(CC(=O)N6CCC(N(C)CC7(C#N)CC7)CC6)c5)nc34)C2)c1 [Example 45, 1-[[[1-[2-[4-[[8-[3-(cyanomethyl)-3-(4-ethylpyrazol-1-yl)azetidin-1-yl]-[1,2,4]triazolo[1,5-a]pyridin-2-yl]amino]pyrazol-1-yl]acetyl]-4-piperidyl]-methyl-amino]methyl]cyclopropane carbonitrile] | 0.3 | 0.8 | 21
CCc1cnn(C2(CC#N)CN(c3cccn4nc(Nc5ccc(C(=O)N6CCN(C7COC7)CC6)cc5)nc34)C2)c1 [Example 44, 2-[3-(4-ethylpyrazol-1-yl)-1-[2-[4-[4-(oxetan-3-yl)piperazine-1-carbonyl]anilino]-[1,2,4]triazolo[1,5-a]pyridin-8-yl]azetidin-3-yl]acetonitrile] | 2.2 | 29.5 | 648
CCc1cnn(C2(CC#N)CN(c3cccn4nc(Nc5ccc(C(=O)N6CCC(N7CCOCC7)CC6)cc5)nc34)C2)c1 [Example 36, 2-[3-(4-ethylpyrazol-1-yl)-1-[2-[4-(4-morpholinopiperidine-1-carbonyl)anilino]-[1,2,4]triazolo[1,5-a]pyridin-8-yl]azetidin-3-yl]acetonitrile] | 0.4 | 1.6 | 52
CN1CCN(C(=O)Cc2ccc(Nc3nc4c(N5CC(CC#N)(n6cc(C(F)(F)F)cn6)C5)cccn4n3)cc2)CC1 [Example 116, formic acid;2-[1-[2-[4-[2-(4-methylpiperazin-1-yl)-2-oxo-ethyl]anilino]-[1,2,4]triazolo[1,5-a]pyridin-8-yl]-3-[4-(trifluoromethyl)pyrazol-1-yl]azetidin-3-yl]acetonitrile] | 0.6 | 4 | 90
CCc1cnn(C2(CC#N)CN(c3cccn4nc(Nc5cnn(CC(=O)N6CCN(C7CCOCC7)CC6)c5)nc34)C2)c1 [Example 31, 2-[3-(4-ethylpyrazol-1-yl)-1-[2-[[1-[2-oxo-2-(4-tetrahydropyran-4-ylpiperazin-1-yl)ethyl]pyrazol-4-yl]amino]-[1,2,4]triazolo[1,5-a]pyridin-8-yl]azetidin-3-yl]acetonitrile] | 0.4 | 1.1 | 19
CN1CCN(C(=O)Cn2cc(Nc3nc4c(N5CC(CC#N)(n6cc(CO)cn6)C5)cccn4n3)cn2)CC1 [Example 20, 2-[3-[4-(hydroxymethyl)pyrazol-1-yl]-1-[2-[[1-[2-(4-methylpiperazin-1-yl)-2-oxo-ethyl]pyrazol-4-yl]amino]-[1,2,4]triazolo[1,5-a]pyridin-8-yl]azetidin-3-yl]acetonitrile] | 1.2 | 9.6 | > 1000
Cc1cnn(C2(CC#N)CN(c3cccn4nc(Nc5cnn(CC(=O)N6CCN(C)CC6)c5)nc34)C2)c1 [Example 10] | 0.4 | 1.5 | 18

The next lines start with results.

Ki [1] [nM] | Ki [2] [nM] | Structure (SMILES) | EC50 [3] [nM]
0.3 | 0.7 | CSc1cc(C2(CC#N)CN(c3cccn4nc(Nc5cnn(CC(=O)N6CCN(C)CC6)c5)nc34)C2)ccc1F [Example 79, 2-[3-(4-fluoro-3-methylsulfanyl-phenyl)-1-[2-[[1-[2-(4-methylpiperazin-1-yl)-2-oxo-ethyl]pyrazol-4-yl]amino]-[1,2,4]triazolo[1,5-a]pyridin-8-yl]azetidin-3-yl]acetonitrile] | 16
0.7 | 0.4 | CN1CCN(C(=O)c2cc(Nc3nc4c(N5CC(CC#N)(n6cc(C(F)(F)F)cn6)C5)cccn4n3)ccn2)CC1 [Example 111, 2-[1-[2-[[2-(4-methylpiperazine-1-carbonyl)-4-pyridyl]amino]-[1,2,4]triazolo[1,5-a]pyridin-8-yl]-3-[4-(trifluoromethyl)pyrazol-1-yl]azetidin-3-yl]acetonitrile] | 39
0.5 | 0.8 | N#CCC1(n2cc(C(F)(F)F)cn2)CN(c2cccn3nc(Nc4cnn(CC(=O)N5CCN(C6COC6)CC5)c4)nc23)C1 [Example 97, 2-[1-[2-[[1-[2-[4-(oxetan-3-yl)piperazin-1-yl]-2-oxo-ethyl]pyrazol-4-yl]amino]-[1,2,4]triazolo[1,5-a]pyridin-8-yl]-3-[4-(trifluoromethyl)pyrazol-1-yl]azetidin-3-yl]acetonitrile] | 51
0.3 | 1.6 | CCc1cnn(C2(CC#N)CN(c3cccn4nc(Nc5ccc6c(c5)CCN(C5COC5)C6)nc34)C2)c1 [Example 51, 2-[3-(4-ethylpyrazol-1-yl)-1-[2-[[2-(oxetan-3-yl)-3,4-dihydro-1H-isoquinolin-6-yl]amino]-[1,2,4]triazolo[1,5-a]pyridin-8-yl]azetidin-3-yl]acetonitrile] | 44
2 | 4 | N#CCC1(c2cccc(Cl)c2)CN(c2cccn3nc(Nc4cnn(CC(=O)N5CCC(NCC6(C#N)CC6)CC5)c4)nc23)C1 [Example 99, 1-[[[1-[2-[4-[[8-[3-(3-chlorophenyl)-3-(cyanomethyl)azetidin-1-yl]-[1,2,4]triazolo[1,5-a]pyridin-2-yl]amino]pyrazol-1-yl]acetyl]-4-piperidyl]amino]methyl]cycl opropanecarbonitrile] | 71
0.5 | 0.8 | N#CCC1(n2cc(C(F)(F)F)cn2)CN(c2cccn3nc(Nc4cnn(CC(=O)N5CCN(C6CCOCC6)CC5)c4)nc23)C1 [Example 98, 2-[1-[2-[[1-[2-oxo-2-(4-tetrahydropyran-4-ylpiperazin-1-yl)ethyl]pyrazol-4-yl]amino]-[1,2,4]triazolo[1,5-a]pyridin-8-yl]-3-[4-(trifluoromethyl)pyrazol-1-yl]azetidin-3-yl]acetonitrile] | 32
2 | 3.8 | Cc1ccccc1-c1cnn(C2(CC#N)CN(c3cccn4nc(Nc5cnn(CC(=O)N6CCC(N(C)C7COC7)CC6)c5)nc34)C2)c1 [Example 124] | 85
0.3 | 1 | COCCN1CCN(C(=O)Cn2cc(Nc3nc4c(N5CC(CC#N)(n6cc(C(F)(F)F)cn6)C5)cccn4n3)cn2)CC1 [Example 94] | 54
0.5 | 2.8 | COc1cnn(C2(CC#N)CN(c3cccn4nc(Nc5cnn(C)c5)nc34)C2)c1 [Example 137, 2-[3-(4-methoxypyrazol-1-yl)-1-[2-[(l-methylpyrazol-4-yl)amino]-[1,2,4]triazolo[1,5-a]pyridin-8-yl]azetidin-3-yl]acetonitrile] | 39
0.4 | 1.1 | CC(C)(C#N)CCN1CCN(C(=O)Cn2cc(Nc3nc4c(N5CC(CC#N)(n6cc(C(F)(F)F)cn6)C5)cccn4n3)cn2)CC1 [Example 107, 4-[4-[2-[4-[[8-[3-(cyanomethyl)-3-[4-(trifluoromethyl)pyrazol-1-yl]azetidin-1-yl]-[1,2,4]triazolo[1,5-a]pyridin-2-yl]amino]pyrazol-1-yl]acetyl]piperazin-1-yl]-2,2-dimethyl-butanenitrile] | 44
0.3 | 0.3 | CCc1cnn(C2(CC#N)CN(c3cccn4nc(Nc5ccc(C(=O)N(C)CC6CCN(C)CC6)cc5)nc34)C2)c1 [Example 84, 4-[[8-[3-(cyanomethyl)-3-(4-ethylpyrazol-1-yl)azetidin-1-yl]-[1,2,4]triazolo[1,5-a]pyridin-2-yl]amino]-N-methyl-N-[(l-methyl-4-piperidyl)methyl]benzamide] | 16
0.2 | 0.3 | N#CCC1(n2cc(OC(F)F)cn2)CN(c2cccn3nc(Nc4cn[nH]c4)nc23)C1 [Example 146, 2-[3-[4-(difluoromethoxy)pyrazol-1-yl]-1-[2-(1H-pyrazol-4-ylamino)-[1,2,4]triazolo[1,5-a]pyridin-8-yl]azetidin-3-yl]acetonitrile] | 7
0.3 | 0.3 | CCc1cccc(C2(CC#N)CN(c3cccn4nc(Nc5cnn(CC(=O)N6CCN(C)CC6)c5)nc34)C2)c1 [Example 71, 2-[3-(3-ethylphenyl)-1-[2-[[1-[2-(4-methylpiperazin-1-yl)-2-oxo-ethyl]pyrazol-4-yl]amino]-[1,2,4]triazolo[1,5-a]pyridin-8-yl]azetidin-3-yl]acetonitrile] | 26
